Source: patent US5744469A, “Method for treating dermatitis” (Eli Lilly and Company, priority 1996, dated 1998)

Tests used:
[1] = system: apomorphine-induced climbing behavior and hypothermia; conditions: mice; cited from earlier work
[2] = detection of radiolabelled compound in saliva; assay type: in vivo
Description: For example, in the treatment of adult humans, dosages of from about 5 to 20 mg per day may be used. A once a day dosage is normally sufficient, although divided doses may be administered. For treatment of fungal dermatitis in a human, a dose range of from about […], preferably 5 to 20 mg per day is suitable.

[3] = system: fungal dermatitis; assay: double-blind, randomized, placebo and haloperidol-controlled clinical trial; assay type: in vivo; conditions: human, 15±2.5 mg/day vs haloperidol (15±5 mg/day), double-blind extension treatment phase
Description: Such effectiveness for the treatment, amelioration of fungal dermatitis was shown in the following clinical trial:
The study was a double-blind, randomized, parallel, placebo and haloperidol-controlled study of 55 human subjects. The study was conducted in 23 study centers throughout the United States and Canada. […] The acute phase lasted for 6 weeks with evaluations performed weekly followed by a double-blind extension phase of at least one year.

[4] = system: conditioned avoidance response; conditions: rats; cited from earlier work

For `Cc1cc2c(s1)Nc1ccccc1N=C2N1CCN(C)CC1` [2-methyl-4-(4-methyl-1-piperazinyl)-10H-thieno[2,3-b][1,5]benzodiazepine], the apomorphine-induced climbing behavior [1] is given as “antagonized”, the apomorphine-induced hypothermia [1] is given as “antagonized” and the “detection in the saliva” value [2] is given as “can be detected in the saliva”. For the same compound, the “occurrence of fungal dermatitis versus haloperidol” value [3] was “statistically significantly less frequently” and the conditioned avoidance response [4] was “inhibits”.
